System: non-neuronal MAO
Assay: Ex vivo MAO activity after i.p. injection in rats, non-neuronal MAO
Design: species or system rat
Experimental: Rats were injected with AFHBA (0.5 mg/kg, i.p.) alone or with AFHBA (0.5 mg/kg, i.p.) in combination with MFMD (2.0 mg/kg, i.p.) administered 30 minutes before AFHBA. Animals were killed 18 hours later and MAO activity (5-HT and phenethylamine as substrates) was determined in brain, heart, and liver. In the brain, AFHBA administered alone inhibited neuronal MAO by 72% and non-neuronal MAO by 37%.
III. Rats were injected with AFMBA (100 mg/kg, i.p.) and were killed 18 hours later. MAO activity was determined in the brain, heart, and liver using 5-HT and PEA.

NC(C(=O)O)C(=CF)c1cccc(O)c1 (racemic) [AFHBA, 2-Amino-4-fluoro-3-(3'-hydroxyphenyl)-3-butenoic acid]
inhibition of non-neuronal MAO, brain, MFMD pretreatment (AFHBA 0.5 mg/kg i.p. + MFMD 2.0 mg/kg i.p. 30 min before, brain): 28% | inhibition of non-neuronal MAO, heart, MFMD pretreatment (AFHBA 0.5 mg/kg i.p. + MFMD 2.0 mg/kg i.p. 30 min before, heart): 4% | inhibition of non-neuronal MAO, brain (AFHBA alone 0.5 mg/kg i.p., 18 hours, brain): 37% | inhibition of non-neuronal MAO, heart (AFHBA alone 0.5 mg/kg i.p., 18 hours, heart): 44% | MAO inhibition, liver (non-neuronal) (AFHBA alone 0.5 mg/kg i.p., 18 hours, liver): 38%
